Key:
[1] = system: MCF-7 breast tumour cell line; conditions: read-out: GI50 MCF-7; in vitro; cited from earlier work
[2] = system: PC3 prostate tumour cell line; conditions: read-out: GI50 PC3; in vitro; cited from earlier work
[3] = system: ME 180 cervical tumour cell line; conditions: read-out: GI50 ME 180; in vitro; cited from earlier work
HeLa cells = assay: WST-1 cytotoxicity assay, HeLa cells; type: cell-based, human; conditions: for IC50: WST-1 assay, 24 h treatment; for SI HeLa: Selectivity Index = IC50(KMST-6)/IC50(HeLa)
Protocol: (§1) HeLa, HT-29, MCF-7 and KMST-6 cells were prepared from our laboratory stocks. Briefly, cell monolayers were maintained in Dulbecco’s modified Eagle’s (DMEM, Lonza Group Ltd., Base, Switzerland) medium with phenol red supplemented with 10% foetal bovine serum (FBS, Biochrom AG, Berlin, Germany) and 1% Penicillin–streptomycin (Lonza Group Ltd.). All cells were maintained in a humidified incubated at 37 °C in an atmosphere of 5% CO2. The cells were harvested using trypsin (Lonza Group Ltd.), and viable cell concentrations were determined using the Countess® Automated Cell Counter (Invitrogen, CA, USA). 5 × 10^4 viable cells were added to each well of a 96-well tissue culture plate and incubated overnight at 37 °C under 5% CO2 in a humidified incubator to allow cells to attach to wells.
(§2) Cell viability was measured using the WST-1 assay (Roche Diagnostics GmbH, Mannheim, Germany) as previously described by Ngamwongsatit et al., 2008. Cells were plated in 96-well cell culture plates at a concentration of 5 × 10^4 cells/well in 100 µL culture medium. After 24 h the cells were treated with increasing concentrations of ethanol extract (0–2 mg/mL), fractions (0–2 mg/mL) and purified compounds (0–250 µg/mL) for a further 24 h. The extracts, fractions and compounds were prepared in DMSO and then mixed with the culture medium. The final concentrations of the DMSO were less than 0.1%. Following 24 h treatment, 10 µL of cell proliferation reagent WST-1 was added and the plates were incubated for 4 h at 37 °C under 5% CO2 in a humidified incubator. The plates wereshakenfor 1 min on a shaker and the absorbance of the samples were measured at 450 nm (reference wavelength was 750 nm) on a micro-plate reader. The cell viability was calculated using the following formula: % Viability = ODtreated well − ODblank/ODuntreated well − ODblank(1) IC50 values were calculated using Prism Graph pad software. Triplicate experiments were conducted and the results expressed as mean ± SEM.

HT-29 cells = assay: WST-1 cytotoxicity assay, HT-29 cells; type: cell-based, human; conditions: for IC50: WST-1 assay, 24 h treatment; for SI HT-29: Selectivity Index = IC50(KMST-6)/IC50(HT-29)
Protocol: as §1, §2

KMST-6 cells = assay: WST-1 cytotoxicity assay, non-cancerous KMST-6 fibroblasts; type: cell-based, human; conditions: WST-1 assay; for IC50: 24 h treatment, non-cancerous fibroblast
Protocol: as §1, §2

MCF-7 cells = assay: WST-1 cytotoxicity assay, MCF-7 cells; type: cell-based, human; conditions: for IC50: WST-1 assay, 24 h treatment; for SI MCF-7: Selectivity Index = IC50(KMST-6)/IC50(MCF-7)
Protocol: as §1, §2

[4] = E/Z isomer stability followed by 1H-NMR; type: physicochemical; conditions: 2–3 months under normal working conditions
Description: Triterpene esters containing the E-coumaric acid isomer have been reported from natural sources, while, the co-existence of E- and Z-coumaric acid esters of ursolic acid (compounds 2 and 3) in Plumeria obtusa of the same family has been reported once.

[5] = system: acetyl CoA cholestryl acyl tranferase (ACAT); design: method as in PMID 10425145; conditions: cited from earlier work
[6] = Stability of the hydrolysed derivative in organic solvents; type: physicochemical; conditions: organic solvents such as methanol and chloroform
Description: Compound 4 was isolated as colourless needle-like crystals with molecular formula of C30H48O2 on the basis of TOF-ESI-MS m/z 441.3735[M+H]^+. […] The signal at δ 174.8 (C-2), 77.9 (C-3) in addition to oxygenated methylene protons at δ 3.79 and 4.08 (CH2-3) indicated the presence of a lactone group. […] The NMR data were assigned unambiguously from 2D NMR spectral analysis of compound 4 and its hydrolyzed product 5. The structure was finally established from X-ray diffraction studies. Figure 2 illustrates the perspective view of the molecule with its relative configuration. The compound was thus assigned as 2,3-seco-taraxer-14-en-2,3-lactone and given the name pycanocarpine. After alkaline hydrolysis, compound 4 produced the unstable derivative viz 2,3-seco-3-hydroxy-taraxer-14-en-3-oic acid (5) as an off-white amorphous powder. The TOF-ESI-MS indicated an m/z 459.3889 [M+H]^+. It was noticeable that the free carboxylic and hydroxyl groups would easily reform the lactone ring after a short time in organic solvents such as methanol and chloroform. The NMR data of 5 is similar to the parent compound 4 and is illustrated in Table 1. Minor changes were observed between 4 and 5 for carbons C-11, -23, -24, and -26. The stereochemistry of both compounds, especially ring A, may partially explain this. In 4 the carbonyl group is directed into the same plan similar to C-24, -26 and -11.

[7] = at the dosages used (0–250 µg/mL)

C[C@H]1[C@H](C)CC[C@]2(C(=O)O)CC[C@]3(C)C(=CC[C@@H]4[C@@]5(C)CC[C@H](OC(=O)/C=C\c6ccc(O)cc6)C(C)(C)[C@@H]5CC[C@]43C)[C@H]12 (relative stereo) [cis-3-O-p-hydroxycinnamoyl ursolic acid]
GI50 [1]: ~20 µM | GI50 [2]: ~20 µM | GI50 [3]: ~20 µM

C[C@H]1[C@H](C)CC[C@]2(C(=O)O)CC[C@]3(C)C(=CC[C@@H]4[C@@]5(C)CC[C@H](O)C(C)(C)[C@@H]5CC[C@]43C)[C@H]12 [Compound 1, ursolic acid]
IC50 (HeLa cells; Homo sapiens, HeLa, 24 h): 10 µM | SI HeLa (HeLa cells): 10.0 | IC50 (HT-29 cells; Homo sapiens, HT-29, 24 h): 10 µM | SI HT-29 (HT-29 cells): 10.0 | IC50 (KMST-6 cells; Homo sapiens, Fibroblast, 24 h): 100 µM | IC50 (MCF-7 cells; Homo sapiens, MCF7, 24 h): 20 µM | SI MCF-7 (MCF-7 cells): 5.0

CC1CCC2(C(=O)O)CCC3(COC(=O)C=Cc4ccc(O)cc4)C(=CCC4C5(C)CCC(O)C(C)(C)C5CCC43C)C2C1C (stereo not shown) [Compound 2, 27-p-E-coumaroloxyursolic acid]
SI HeLa (HeLa cells): 2 | IC50 (HeLa cells): 50 µM | SI HT-29 (HT-29 cells): 1 | IC50 (HT-29 cells): 100 µM | IC50 (KMST-6 cells): 100 µM | SI MCF-7 (MCF-7 cells): 1.7 | IC50 (MCF-7 cells): 60 µM | E/Z isomerization of the isomers (1H-NMR) [4]: did not observe any such change

CC1CCC2(C(=O)O)CCC3(COC(=O)C=Cc4ccc(O)cc4)C(=CCC4C5(C)CCC(O)C(C)(C)C5CCC43C)C2C1C (stereo not shown) [Compound 3, 27-p-Z-coumaroyloxyursolic acid]
SI HeLa (HeLa cells): 1.5 | IC50 (HeLa cells): 200 µM | SI HT-29 (HT-29 cells): 1.3 | IC50 (HT-29 cells): 230 µM | cytotoxicity to non-cancerous cell line KMST-6 (in words) (KMST-6 cells): non- cytotoxic | IC50 (KMST-6 cells): 300 µM | activity against ACAT (in words) [5]: potent activity | SI MCF-7 (MCF-7 cells): 1.7 | IC50 (MCF-7 cells): 180 µM | E/Z isomerization of the isomers (1H-NMR) [4]: did not observe any such change

CC1(C)CCC2(C)CC=C3C(C)(CCC4C3(C)CCC3C(C)(C)COC(=O)CC34C)C2C1 (stereo not shown) [Compound 4, 2,3-seco-taraxer-14-en-2,3-lactone]
IC50 (HeLa cells; Homo sapiens, HeLa, 24 h): > 600 µM | cytotoxicity on HeLa cells (in words) (HeLa cells; [7]): did not show cytotoxicity | IC50 (HT-29 cells; Homo sapiens, HT-29, 24 h): > 600 µM | cytotoxicity on HT-29 cells (in words) (HT-29 cells; [7]): did not show cytotoxicity | IC50 (KMST-6 cells; Homo sapiens, Fibroblast, 24 h): > 600 µM | cytotoxicity to non-cancerous cell line KMST-6 (in words) (KMST-6 cells): non- cytotoxic | IC50 (MCF-7 cells; Homo sapiens, MCF7, 24 h): 20 µM | SI MCF-7 (MCF-7 cells): >30 | melting point: 246 to 249 °C

CC1(C)CC[C@]2(C)CC=C3[C@]4(C)CCC(C(C)(C)CO)[C@](C)(CC(=O)O)C4CC[C@@]3(C)C2C1 (stereo partly shown) [Compound 5, 2,3-seco-3-hydroxy-taraxer-14-en-3-oic acid]
IC50 (HeLa cells; Homo sapiens, HeLa, 24 h): 180 µM | SI HeLa (HeLa cells): 0.06 | stability (re-lactonisation) [6]: unstable | IC50 (HT-29 cells; Homo sapiens, HT-29, 24 h): 170 µM | SI HT-29 (HT-29 cells): 0.06 | IC50 (KMST-6 cells; Homo sapiens, Fibroblast, 24 h): 10 µM | IC50 (MCF-7 cells; Homo sapiens, MCF7, 24 h): 10 µM | SI MCF-7 (MCF-7 cells): 1 | melting point: 237 to 241 °C

From paper PMC6271701, “An Unusual 2,3-Secotaraxerene and Other Cytotoxic Triterpenoids from Pleiocarpa pycnantha (Apocynaceae) Leaves Collected from Nigeria” (Molecules, 2014)
